Assay results from patent US10307424B2, “Drug with hepatoprotective activity” (priority 2015, dated 2019).

Tests used:
[1] = tested on: Acute toxic hepatitis in rats induced by carbon tetrachloride (CCl4); assay: Hepatoprotective activity in rats with acute toxic hepatitis induced by CCl4; format: in vivo, Wistar rats; settings: 25 mg/kg; for Survivability of the animals by day 28: Wistar rats; for Body weight of the animals by the 20th day: surviving animals
Protocol: The animals were in standard housing conditions under natural light conditions, with free access to water and food. Acute toxic hepatitis in rats was induced by means of intragastric administration of 50% solution of carbon tetrachloride (CCl 4) in olive oil at a dose of 1 ml/kg for 6 days. […]
The tested preparations were administered orally in the form of a suspension in olive oil once a day after the formation of the model pathology or intravenously at a dose of 25 mg/kg. The weight dynamics of the rats were determined on Sartorius scale.

[2] = tested on: patients with toxic liver damage, alcoholic hepatitis, alcoholic liver disease (fatty hepatosis), alcoholic liver cirrhosis; assay: Efficacy of derivatives No. 1 and No. 2 in patients with liver disease (decrease in ALT, ASAT, GGTP); format: in vivo, patients (men and women); settings: of 30 patients
Text: The study of the efficacy of derivatives No. 1 and No. 2 was additionally carried out with the participation of patients (men and women aged 25 to 60 years) with the following diagnoses: toxic liver damage, alcoholic hepatitis, alcoholic liver disease (fatty hepatosis), alcoholic liver cirrhosis.
Inclusion criteria: increased levels of alanine aminotransferase (ALT), aspartate aminotransferase (ASAT), gamma glutaminetransferase (GGTP) at least 2 times the upper limit of the normal value.
Patients of the experimental group (30 persons) adhibited derivative No. 1 in the form of capsules containing 250 mg of the drug in a total dose of 1000 mg/day.
Patients of the control group (9 persons) adhibited placebo (capsules filled with chalk).
Patients of the experimental group (30 persons) adhibited derivative No. 2 in the form of lyophilisate for IV injection containing 50 mg of the drug in a total dose of 300 mg/day.
Patients of the control group (10 persons), were administered a 0.9% solution of NaCl as a placebo.

[3] = tested on: toxic hepatitis modelled by combined administration of dichloroethane and acetaminophen; assay: Combined effect of subject compounds and known hepatic drugs, toxic hepatitis by dichloroethane and acetaminophen (500 and 500 mg/kg); format: in vivo; settings: untreated control 10
Protocol: Also, the combined effect of the subject compounds and known drugs for the treatment of hepatic diseases was examined.
(§1) For the modeling of toxic hepatitis, the combined administration of dichloroethane and acetaminophen in doses of 500 and 500 mg/kg, respectively, was used. After 10 days all experimental animals confirmed the presence of toxic hepatitis according to the morphological pattern of the liver.

[4] = tested on: toxic hepatitis modelled by combined administration of dichloroethane and acetaminophen; assay: Toxic hepatitis caused by dichloroethane and acetaminophen (300 and 250 mg/kg), treatment with derivative No. 4; format: in vivo, laboratory rats; settings: for Cytochrome B5 / Cytochrome P450 / Glycogen / Reduced glutathione: liver
Protocol: The efficacy of derivative No. 4 on additional parameters was studied in laboratory rats.
as §1, with “of 300” for “of 500”, “and 250” for “and 500”, “liver. In the untreated control group, by the 10th day of the study, 4 animals out of 10 died.” for “liver.”
From that time, for 10 days, the experimental animals were administered, once a day, derivative No. 4 (50 mg/kg, intragastrically in starch mucus) or derivative No. 4 (10 mg/kg, IV, into the tail vein).

[5] = capsules 250 mg, total dose 1000 mg/day, control 1 of 9
[6] = lyophilisate for IV injection, total dose 300 mg/day, control 1 of 10
[7] = Enteral administration, 50 mg/kg intragastrically once a day, day 10
[8] = Parenteral administration, 10 mg/kg IV once a day, day 10
[9] = Intraventricular administration, once a day

With `O=C1NC(O)(O)C(=NO)C(=O)N1c1ccc(Br)cc1` [Derivative 1, 3-(4-bromophenyl)-6,6-dihydroxy-5-hydroxyiminohexahydro-2,4-pyrimidinedione] the “Survivability of the animals by day 28” value ([1]; Intravenous administration) was 57%, the “Body weight of the animals by the 20th day” value (“Body weight of the animals” below) ([1]; Intravenous administration) was 171 ± 5% and the “Survivability of the animals by day 28” value ([1]; once a day) was 59%. The “The number of patients in the group with a decrease in ALT by 30% or more” value [2, 5] was 23, the “The number of patients in the group with a decrease in ASAT by 30% or more” value [2, 5] was 23 and the “The number of patients in the group with a decrease in GGTP by 30% or more” value ([2]; capsules 250 mg, total dose 1000 mg/day, control 2 of 9) was 25. For the same compound, the “Survivability by the 10th day” value [3] was 40%.

For `O=C1NC(O)(O)C(=N[O-])C(=O)N1c1ccc(Br)cc1.[Na+]` [Derivative 2], the “The number of patients in the group with a decrease in ALT by 30% or more” value [2, 6] was 17, the “The number of patients in the group with a decrease in ASAT by 30% or more” value [2, 6] was 19 and the “The number of patients in the group with a decrease in GGTP by 30% or more” value ([2]; lyophilisate for IV injection, total dose 300 mg/day, control 2 of 10) was 25. For the same compound, the “Survivability by the 10th day” value [3] was 40%.

With `NC(CO)(CO)CO.O=C1NC(O)(O)C(=NO)C(=O)N1c1ccc(Br)cc1` [Derivative 4] the “-SH-group” value [4, 7] was 900 ± 50 μmol/100 ml, the ALP [4, 7] was 0.73 ± 0.09 μkat/l and the ALT [4, 7] was 0.54 ± 0.08 μkat/l. The ASAT [4, 7] was 0.72 ± 0.06 μkat/l, the Body weight [4, 7] was 180 ± 15 g and the “Bromsulfalein, at the 10th minute after the introduction” value [4, 7] was 19.3 ± 1.1 mg %. For the same compound, the Ceruloplasmin [4, 7] was 520 ± 50 mg/L, the ChE [4, 7] was 2.1 ± 0.2 µmol/g/min and the Cholesterol [4, 7] was 1.58 ± 0.21 mmol/L. The Glucose [4, 7] was 4.5 ± 0.4 mmol/L, the Hexenalum sleep [4, 7] was 27.0 ± 1.5 min and the LDH [4, 7] was 6.82 ± 0.34 mmol/h/L. For the same compound, the Prothrombin time [4, 7] was 43 ± 5 s, the Timole test [4, 7] was 2.86 ± 0.44 units of turbidity and the Total lipids [4, 7] was 3.2 ± 0.1 g/L. For the same compound, the Total protein [4, 7] was 52 ± 5 g/L, the “-SH-group” value [4, 8] was 640 ± 50 μmol/100 ml and the ALP [4, 8] was 0.82 ± 0.12 μkat/l. It also gave an ALT [4, 8] of 0.69 ± 0.06 μkat/l, an ASAT [4, 8] of 0.76 ± 0.08 μkat/l and a Body weight [4, 8] of 185 ± 5 g. The “Bromsulfalein, at the 10th minute after the introduction” value [4, 8] was 23.0 ± 1.6 mg %, the Ceruloplasmin [4, 8] was 580 ± 80 mg/L and the ChE [4, 8] was 2.2 ± 0.2 µmol/g/min. For the same compound, the Cholesterol [4, 8] was 1.70 ± 0.26 mmol/L, the Glucose [4, 8] was 4.6 ± 0.2 mmol/L and the Hexenalum sleep [4, 8] was 29.5 ± 1.5 min. For the same compound, the LDH [4, 8] was 8.24 ± 0.35 mmol/h/L, the Timole test [4, 8] was 3.22 ± 0.53 units of turbidity and the Total lipids [4, 8] was 2.9 ± 0.2 g/L. For the same compound, the Total protein [4, 8] was 48 ± 4 g/L, the Death of animals ([4]; enterally or parenterally injected, untreated control: 4 animals out of 10 died by the 10th day) was “not a single animal died” and the “Cytochrome B5” value [4, 7] was 0.54 ± 0.07 mmol/mg protein ×10^−4. For the same compound, the “Cytochrome P450” value [4, 7] was 0.98 ± 0.06 mmol/mg protein ×10^−4, the Glycogen [4, 7] was 1600 ± 100 mg % and the Reduced glutathione [4, 7] was 165 ± 10 mg %. For the same compound, the “Cytochrome B5” value [4, 8] was 0.68 ± 0.04 mmol/mg protein ×10^−4, the “Cytochrome P450” value [4, 8] was 1.12 ± 0.03 mmol/mg protein ×10^−4 and the Glycogen [4, 8] was 1500 ± 200 mg %. For the same compound, the Reduced glutathione [4, 8] was 170 ± 10 mg % and the “Survivability by the 10th day” value [3] was 40%.

`NCCCO.O=C1NC(O)(O)C(=NO)C(=O)N1c1ccc(Br)cc1` [Derivative 5] was tested, and the “Survivability of the animals by day 28” value ([1]; Intravenous administration) was 60%, the “Body weight of the animals” value ([1]; Intravenous administration) was 168 ± 7% and the “Survivability of the animals by day 28” value [1, 9] was 61%. For the same compound, the “Body weight of the animals” value [1] was 161 ± 9%.

`C[S+](CC[C@H](N)C(=O)[O-])C[C@H]1O[C@@H](n2cnc3c(N)ncnc32)[C@H](O)[C@@H]1O` (some centres unmarked) [Prototype, S-Adenosyl methionine-ademetionine, reference compound] was tested, and the “Survivability of the animals by day 28” value ([1]; Intravenous administration) was 48%, the “Body weight of the animals” value ([1]; Intravenous administration) was 159 ± 4% and the “Survivability of the animals by day 28” value [1, 9] was 46%. The “Body weight of the animals” value [1] was 160 ± 4% and the “Survivability by the 10th day” value [3] was 30%.

For `C[C@H](CCC(=O)O)[C@H]1CC[C@H]2[C@@H]3[C@@H](O)C[C@@H]4C[C@H](O)CC[C@]4(C)[C@H]3CC[C@]12C` [Ursodeoxycholic acid, ursodeoxycholic acid, reference compound], the “Survivability by the 10th day” value [3] was 20%.
